Starred links: 1 amine or outer side, 2 acyl side, 3 side chain; linkers in the order of their positions; H or OH if unused. Positions of bridges follow the written chain, without caps; N, C: chain ends. Non-standard residues stand in square brackets, D forms with d. Residues, ends and D or L forms follow the SMILES beside them. *: point of attachment. hPhe(3-Cl-4-CF3) = N[C@@H](CCc1ccc(C(F)(F)F)c(Cl)c1)C(=O)O; NMePhe(4-CF3) = CN[C@@H](Cc1ccc(C(F)(F)F)cc1)C(=O)O; hPhe(4-CF3) = N[C@@H](CCc1ccc(C(F)(F)F)cc1)C(=O)O; NMePhe(4-I) = CN[C@@H](Cc1ccc(I)cc1)C(=O)O; NMedβ3hAla = C[C@H](CC(=O)[*:2])N(C)[*:1]; NMeAla(cPr) = CN[C@@H](CC1CC1)C(=O)O; NMeGly(cBu) = CN[C@H](C(=O)O)C1CCC1; NMeCha = CN[C@@H](CC1CCCCC1)C(=O)O; NMeChg = CN[C@H](C(=O)O)C1CCCCC1; NMeD = CN[C@@H](CC(=O)O)C(=O)O; NMeHpra = C#CCC[C@H](NC)C(=O)O; NMeL = CN[C@@H](CC(C)C)C(=O)O; NMeV = CN[C@H](C(=O)O)C(C)C; NMeS = CN[C@@H](CO)C(=O)O; Ac6c = NC1(C(=O)O)CCCCC1; NMeA = CN[C@@H](C)C(=O)O; Piperidide = C1CCN(*)CC1; Pyrrolidide = C1CCN(*)C1; Ac5c = NC1(C(=O)O)CCCC1; Aze = O=C(O)[C@@H]1CCN1; CH2CMe2OH = CC(C)(O)C*; Sar = CNCC(=O)O
Tests used:
[1] = molecular target: T1, Kras and SOS1 (biotin-tagged human Kras loaded with GDP, His-tagged human SOS1) (Homo sapiens, UniProt P01116, G12D); experiment: Protein-protein interaction inhibition between Kras and SOS1 (KrasGl2D-SOS PPI) using AlphaScreen; type: binding; settings: AlphaScreen; biotin-tagged human Kras loaded with GDP, His-tagged human SOS1; read-out: KRAS G12D-SOS PPI IC50
T1 construct: made in house; host or cells: E. coli (stated for Kras only)
In short: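 Donor beads (nickel) hold His-SOS1; acceptor beads (streptavidin) hold biotin-Kras bound to GDP. Signal measured at 520-620 nm following 680 nm excitation.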

[2] = test system: Human pancreatic cancer cell line AsPC-1; experiment: Measurement of AsPC-1 cell growth inhibition (AsPC-1 CGI); type: cell-based; settings: 96 h
In short: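 AsPC-1 cells in 15% FBS RPMI-1640 were exposed to test compound for 96 hours at 37° C, with CellTiter-Glo as endpoint.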

T1 sequence (P01116 1-188 isoform P01116-2 G12D): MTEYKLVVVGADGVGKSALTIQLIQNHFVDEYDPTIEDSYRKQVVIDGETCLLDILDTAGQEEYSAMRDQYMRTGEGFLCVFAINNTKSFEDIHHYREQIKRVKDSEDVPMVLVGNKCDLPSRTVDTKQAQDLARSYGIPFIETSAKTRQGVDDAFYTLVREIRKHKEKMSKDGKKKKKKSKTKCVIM

Row | SMILES | IC50 [1] [nM] | IC50 [2] [nM]
1 | CC[C@H](C)[C@@H]1NC(=O)[C@H](CC2CC2)N(C)C(=O)C[C@@H](C(=O)N2CCCCC2)N(C)C(=O)[C@H](C2CCCCC2)N(C)C(=O)C2(CCCC2)NC(=O)[C@@H]2CCCN2C(=O)[C@H](CCc2ccc(C(F)(F)F)c(Cl)c2)NC(=O)CN(C)C(=O)[C@H](CC2CCCCC2)N(C)C(=O)CN(C)C(=O)CN(C)C1=O [Compound 68] ([NMeAla(cPr)]I[Sar][Sar][NMeCha][Sar][hPhe(3-Cl-4-CF3)]P[Ac5c][NMeChg][NMeD]-Piperidide; lactam N-11) | 0.58 | 50 to 100
2 | CC[C@H](C)[C@@H]1NC(=O)[C@H](C)N(C)C(=O)C[C@@H](C(=O)N2CCCCC2)N(C)C(=O)[C@H](C2CCCCC2)N(C)C(=O)C2(CCCC2)NC(=O)[C@@H]2CCCN2C(=O)[C@H](CCc2ccc(C(F)(F)F)cc2)NC(=O)CN(C)C(=O)[C@H](CC2CCCCC2)N(C)C(=O)CN(C)C(=O)CN(C)C1=O [Compound 72] ([NMeA]I[Sar][Sar][NMeCha][Sar][hPhe(4-CF3)]P[Ac5c][NMeChg][NMeD]-Piperidide; lactam N-11) | 0.47 | 100 to 500
3 | CC[C@H](C)[C@@H]1NC(=O)[C@H](C2CCC2)N(C)C(=O)C[C@@H](C(=O)N2CCCC2)N(C)C(=O)[C@H](C2CCCCC2)N(C)C(=O)C2(CCCC2)NC(=O)[C@@H]2CCCN2C(=O)[C@H](CCc2ccc(C(F)(F)F)c(Cl)c2)NC(=O)CN(C)C(=O)[C@H](Cc2ccc(C(F)(F)F)cc2)N(C)C(=O)CN(C)C(=O)CN(C)C1=O [Compound 73] ([NMeGly(cBu)]I[Sar][Sar][NMePhe(4-CF3)][Sar][hPhe(3-Cl-4-CF3)]P[Ac5c][NMeChg][NMeD]-Pyrrolidide; lactam N-11) | 0.33 | 20 to 50
4 | CC[C@H](C)[C@@H]1NC(=O)[C@H](CC(C)C)N(C)C(=O)C[C@@H](C)N(C)C(=O)[C@H](C(C)C)N(C)C(=O)C2(CCCCC2)NC(=O)[C@@H]2CCCN2C(=O)[C@H](CCc2ccc(C(F)(F)F)c(Cl)c2)NC(=O)CN(C)C(=O)[C@H](CC2CCCCC2)N(C)C(=O)CN(C)C(=O)CN(C)C1=O [Compound 81] (cyclo([Ac6c][NMeV][NMedβ3hAla][NMeL]I[Sar][Sar][NMeCha][Sar][hPhe(3-Cl-4-CF3)]P)) | 14 | 100 to 500
5 | CC[C@H](C)[C@@H]1NC(=O)[C@H](CC(C)C)N(C)C(=O)C[C@@H](C(=O)N2CCCCC2)N(C)C(=O)[C@H](C(C)C)N(C)C(=O)C2(CCCC2)NC(=O)[C@@H]2CCCN2C(=O)[C@H](CCc2ccc(C(F)(F)F)c(Cl)c2)NC(=O)CN(C)C(=O)[C@H](CC2CCCCC2)N(C)C(=O)[C@@H]2CCN2C(=O)[C@H](COCC(C)(C)O)N(C)C1=O [Compound 86] ([NMeL]I[NMeS](CH2CMe2OH)[Aze][NMeCha][Sar][hPhe(3-Cl-4-CF3)]P[Ac5c][NMeV][NMeD]-Piperidide; lactam N-11) | 9 | 100 to 500
6 | CC[C@H](C)[C@@H]1NC(=O)[C@H](C2CCCCC2)N(C)C(=O)C[C@@H](C(=O)N2CCCCC2)N(C)C(=O)[C@H](C(C)C)N(C)C(=O)C2(CCCC2)NC(=O)[C@@H]2CCCN2C(=O)[C@H](CCc2ccc(C(F)(F)F)c(Cl)c2)NC(=O)CN(C)C(=O)[C@H](CC2CCCCC2)N(C)C(=O)CN(C)C(=O)CN(C)C1=O [Compound 106] ([NMeChg]I[Sar][Sar][NMeCha][Sar][hPhe(3-Cl-4-CF3)]P[Ac5c][NMeV][NMeD]-Piperidide; lactam N-11) | 8.9 | 100 to 500
7 | CC[C@H](C)[C@@H]1NC(=O)[C@H](CC(C)C)N(C)C(=O)C[C@@H](C(=O)N2CCCCC2)N(C)C(=O)[C@H](C(C)C)N(C)C(=O)C2(CCCC2)NC(=O)[C@@H]2CCCN2C(=O)[C@H](CCc2ccc(C(F)(F)F)cc2)NC(=O)CN(C)C(=O)[C@H](CC2CCCCC2)N(C)C(=O)CN(C)C(=O)CN(C)C1=O [Compound 108] ([NMeL]I[Sar][Sar][NMeCha][Sar][hPhe(4-CF3)]P[Ac5c][NMeV][NMeD]-Piperidide; lactam N-11) | 5 | 100 to 500
8 | C#CCC[C@H]1C(=O)N[C@@H]([C@@H](C)CC)C(=O)N(C)CC(=O)N(C)CC(=O)N(C)[C@@H](Cc2ccc(I)cc2)C(=O)N(C)CC(=O)N[C@@H](CCc2ccc(C(F)(F)F)c(Cl)c2)C(=O)N2CCC[C@H]2C(=O)NC2(CCCC2)C(=O)N(C)[C@@H](C2CCCCC2)C(=O)N(C)[C@H](C)CC(=O)N1C [Compound 110] (cyclo([Ac5c][NMeChg][NMedβ3hAla][NMeHpra]I[Sar][Sar][NMePhe(4-I)][Sar][hPhe(3-Cl-4-CF3)]P)) | 3.8 | 100 to 500
